Measured values from patent US9187496B2 (priority 2009, dated 2015).

Assays:
[1] = tested on: Huh-7 cells containing HCV Con1 subgenomic replicon (GS4.1 cells); assay: HCV replicon assay (NS5A ELISA); assay type: cell-based; details: Hepatitis C virus, Huh-7; GS4.1 cells, 72 hrs, NS5A ELISA; read-out: EC50
Procedure: General Procedure: Huh-7 cells containing HCV Con1 subgenomic replicon (GS4.1 cells) were grown in Dulbecco's Modified Eagle Medium (DMEM) supplemented with 10% fetal bovine serum (FBS), 2 mM L-glutamine, 110 mg/L sodium pyruvate, 1× non-essential amino acids, 100 U/mL penicillin-streptomycin, and 0.5 mg/mL G418 (Invitrogen). For dose-response testing, the cells were seeded in 96-well plates at 7.5×10^3 cells/well in a volume of 50 μL, and incubated at 37° C./5% CO2. Three hours after plating, 50 μL of ten 2-fold serial dilutions of compounds (highest concentration, 75 μM) were added, and cell cultures were incubated at 37° C./5% CO2 in the presence of 0.5% DMSO. Alternatively, compounds were tested at a single concentration of 15 μM. In all cases, Huh-7 cells lacking the HCV replicon served as negative control. The cells were incubated in the presence of compounds for 72 hrs after which they were monitored for expression of the NS5A protein by enzyme-linked immunosorbent assay (ELISA). For this, the plates were then fixed for 1 min with acetone/methanol (1:1, v/v), washed twice with phosphate-buffered saline (PBS), 0.1% Tween 20, blocked for 1 hr at room temperature with TNE buffer containing 10% FBS and then incubated for 2 hr at 37° C. with the anti-NS5A mouse monoclonal antibody A-236 (ViroGen) diluted in the same buffer. After washing three times with PBS, 0.1% Tween 20, the cells were incubated 1 hr at 37° C. with anti-mouse immunoglobulin G-peroxidase conjugate in TNE, 10% FBS. After washing as described above, the reaction was developed with O-phenylenediamine (Zymed). The reaction was stopped after 30 min with 2 N H2SO4, and absorbance was read at 492 nm using Sunrise Tecan spectrophotometer. EC50 values were determined from the % inhibition versus concentration data using a sigmoidal non-linear regression analysis based on four parameters with Tecan Magellan software.

[2] = tested on: HCV genotype 4a-specific NS5A gene within the 1b-replicon; assay: Luciferase replicon assay, NS5A-intergenotypic stable cell line genotype 4a; assay type: cell-based; details: Hepatitis C virus, read-out: EC50 4a
Excerpt: (§1) The nucleotide sequences of the NS5A region of genotype 2a (GenBank Accession #AB047639), genotype 3a (GenBank Accession #D17763), and genotype 4a (GenBank Accession#DQ418788) were synthesized by an outside vendor. The NS5A region of each of these genotypes included the first 11 amino acids of the protease recognition sequence of genotype 1b, as well as the last 10 amino acids of genotype 1b. The NS5A gene cassettes were excised with site specific restriction endonucleases and ligated into a ZS11-luciferase genotype 1b backbone (backbone contains the genotype 1b NS3 protease, NS4a, NS4b, and NS5b coding regions) with similarly cut restriction enzyme sites. Thus, the newly constructed plasmid contains a genotype 2a-, 3a- or 4a-specific NS5A gene within the 1b-replicon.
(§2) These new intergenotypic plasmids were used to establish stable cell lines. RNA was generated from the NS5A intergenotypic plasmids and used in conjunction with a lipofectin reagent to transfect a cured Huh7 cell line. Transfected cells were selected for with G418. After selection has occurred the stable cell lines were propagated, tested for luciferase activity, and RT-PCR with genotype specific primers (either 1a, 2a, 3a, or 4a). Stable cell lines containing the intergenotypic replicon were then fully sequenced and analysed for proper expression of NS3, NS5A and NS5B proteins.
(§3) Drug titration analysis was performed using the luciferase replicon assay described herein.
(§4) The HCV luciferase replicon assay measures the ability of a test compound to inhibit HCV replication in cell culture after 3 days of treatment in a human hepatoma cell line (Huh-7) bearing a HCV replicon containing a luciferase-neomycin phosphotransferase fusion gene. The inhibition of HCV replication was measured by quantification of luciferase protein expression. Briefly, Huh-7 cells containing either the HCV genotype 1a H77 strain or genotype 1b Conl strain subgenomic luciferase replicon (H1a-luc or Zluc, respectively) were grown in DMEM containing glucose, L-glutamine and sodium pyruvate, 10% fetal bovine serum (FBS), 100 IU/mL penicillin, 100 μg/mL streptomycin, 2 mM GlutaMAX, non-essential amino acids and 0.25 (H1a-luc) or 0.5 (Zluc) mg/mL G418. GlutaMAX was obtained from Invitrogen, Corp.; all other media reagents were obtained from Mediatech, Inc. For dose-response testing, the cells were seeded in 96-well plates at 1×10^4 (H1a-luc) or 7.5×10^3 (Zluc) cells/well in a volume of 50 μL, and incubated at 37° C./5% CO2. Three hours after plating, 50 μL of ten 5-fold serial dilutions of compound were added, and cell cultures were incubated at 37° C./5% CO2 for 72 hours. In all cases, Huh-7 cells lacking the HCV replicon served as negative control. To assess luciferase expression, the media/compound was removed from the plates and ONE-glo Luciferase assay reagent (Promega) was added to each well. The assay plates were shaken for 3 minutes at room temperature and luciferase activity for each well was measured with a 1 sec read time on the Victor^3V multilabel counter using a 700 nm cut-off filter (Perkin Elmer). EC50 values were calculated from dose response curves from the resulting best-fit equations determined by Microsoft Excel and XLfit 4.1 software.

[3] = tested on: HCV genotype 1b Conl strain subgenomic luciferase replicon (Zluc); assay: Luciferase replicon assay, genotype 1b; assay type: cell-based; details: Hepatitis C virus, 72 h, read-out: EC50 1b
Procedure: as §4

[4] = tested on: HCV genotype 3a-specific NS5A gene within the 1b-replicon; assay: Luciferase replicon assay, NS5A-intergenotypic stable cell line genotype 3a; assay type: cell-based; details: Hepatitis C virus, read-out: EC50 3a
Excerpt: as §1, §2, §3, §4

[5] = Cytotoxicity evaluation in luciferase replicon cells (Cell Titer 96 AQueous One); assay type: cell-based, human; details: human; Table 1B, cellular viability
Procedure: For cytotoxicity evaluation, H1a-luc or Zluc cells were treated with compounds as described above and cellular viability was monitored using the Cell Titer 96 AQueous One Solution Cell Proliferation Assay (Promega). Plates were then read at 490 nm in a Victor^3V 1420 multilabel counter (Perkin Elmer) and CC50 concentrations were determined using Microsoft Excel and XLfit 4.1 software.

[6] = tested on: GS4.1 cells; assay: Cytotoxicity evaluation in GS4.1 cells (Cell Titer 96 AQueous One); assay type: cell-based, human; details: cellular viability
Procedure: For cytotoxicity evaluation, GS4.1 cells were treated with compounds as described above and cellular viability was monitored using the Cell Titer 96 AQueous One Solution Cell Proliferation Assay (Promega). CC50 values were determined from the % cytotoxicity versus concentration data with Tecan Magellan software as described above.

[7] = tested on: HCV genotype 2a-specific NS5A gene within the 1b-replicon; assay: Luciferase replicon assay, NS5A-intergenotypic stable cell line genotype 2a; assay type: cell-based; details: Hepatitis C virus, read-out: EC50 2a
Excerpt: as §1, §2, §3, §4

Compound | EC50 [1] | EC50 [2] | EC50 [3] | EC50 [4] | CC50 at 72 h [5] | CC50 [6] | EC50 [7]
COC(=O)N[C@H](C(=O)N1CCC[C@H]1c1ncc(-c2ccc(-c3csc4c(-c5cnc([C@@H]6CCCN6C(=O)[C@H](NC(=O)OC(C)(C)C)c6ccccc6)[nH]5)csc34)cc2)[nH]1)C(C)C [Compound A111, [(S)-1-((S)-2-{4-[4-(6-{(S)-2-[1-((R)-2-tert-butoxycarbonylamino-2-phenyl-acetyl)-pyrrolidin-2-yl]-3H-imidazol-4-yl}-thieno[3,2-b]thiophen-3-yl)-phenyl]-1H-imidazol-2-yl}-pyrrolidine-1-carbonyl)-2-methyl-propyl]-carbamic acid methyl ester] | < 1 nM | < 0.1 nM | < 0.1 nM | < 0.1 nM | > 75000 nM | > 75000 nM | < 0.1 nM
COC(=O)N[C@H](C(=O)N1CCC[C@H]1c1ncc(-c2ccc(-c3cc4sc(-c5cnc([C@@H]6CCCN6C(=O)[C@@H](NC(=O)OC)C(C)C)[nH]5)cc4s3)cc2)[nH]1)C(C)C [Compound A126, [(S)-1-((S)-2-{5-[4-(5-{2-[(S)-1-((S)-2-Methoxycarbonylamino-3-methyl-butyryl)-pyrrolidin-2-yl]-3H-imidazol-4-yl}-thieno[3,2-b]thiophen-2-yl)-phenyl]-1H-imidazol-2-yl}-pyrrolidine-1-carbonyl)-2-methyl-propyl]-carbamic acid methyl ester] | < 1 nM | < 0.1 nM | < 0.1 nM | 1 to 10 nM | > 75000 nM | > 75000 nM | 0.1 to 1 nM
COC(=O)N[C@H](C(=O)N1CCC[C@H]1c1ncc(-c2ccc(-c3csc4c(-c5ccc6[nH]c([C@@H]7CCCN7C(=O)[C@@H](NC(=O)OC)C(C)C)nc6c5)csc34)cc2)[nH]1)C(C)C [Compound A171, [(S)-1-((S)-2-{4-[4-(6-{2-[(S)-1-((S)-2-methoxycarbonylamino-3-methyl-butyryl)-pyrrolidin-2-yl]-3H-benzoimidazol-5-yl}-thieno[3,2-b]thiophen-3-yl)-phenyl]-1H-imidazol-2-yl}-pyrrolidine-1-carbonyl)-2-methyl-propyl]-carbamic acid methyl ester] | – | < 0.1 nM | < 0.1 nM | 1 to 10 nM | > 75000 nM | – | 0.1 to 1 nM
COC(=O)N[C@H](C(=O)N1CCC[C@H]1c1ncc(-c2ccc(-c3csc4c(-c5ccc6[nH]c([C@@H]7CCCN7C(=O)[C@H](NC(=O)OC)c7ccccc7)nc6c5)csc34)cc2)[nH]1)C(C)C [Compound A172, [(S)-1-((S)-2-{5-[4-(6-{(S)-2-[1-((R)-2-methoxycarbonylamino-2-phenyl-acetyl)-pyrrolidin-2-yl]-3H-benzoimidazol-5-yl}-thieno[3,2-b]thiophen-3-yl)-phenyl]-1H-imidazol-2-yl}-pyrrolidine-1-carbonyl)-2-methyl-propyl]-carbamic acid methyl ester] | – | < 0.1 nM | < 0.1 nM | < 0.1 nM | > 75000 nM | – | < 0.1 nM
COC(=O)N[C@H](C(=O)N1CCC[C@H]1c1ncc(-c2csc3c(-c4ccc5[nH]c([C@@H]6CCCN6C(=O)[C@@H](NC(=O)OC)C(C)C)nc5c4)csc23)[nH]1)C(C)C [Compound A173, ((S)-1-{(S)-2-[6-(6-{(S)-2-[1-((S)-2-methoxycarbonylamino-3-methyl-butyryl)-pyrrolidin-2-yl]-1H-imidazol-4-yl}-thieno[3,2-b]thiophen-3-yl)-1H-benzoimidazol-2-yl]-pyrrolidine-1-carbonyl}-2-methyl-propyl)-carbamic acid methyl ester] | – | 1 to 10 nM | < 0.1 nM | 1 to 10 nM | 10000 to 75000 nM | – | 1 to 10 nM
COC(=O)N[C@H](C(=O)N1CCC[C@H]1c1ncc(-c2ccc(-c3csc4c(-c5cnc([C@@H]6CCCN6C(=O)[C@H](NC(=O)OC)c6ccccc6)[nH]5)csc34)cc2)[nH]1)C(C)C [Compound A200, [(S)-1-((S)-2-{4-[4-(6-{2-[(S)-1-((R)-2-methoxycarbonylamino-2-phenyl-acetyl)-pyrrolidin-2-yl]-3H-imidazol-4-yl}-thieno[3,2-b]thiophen-3-yl)-phenyl]-1H-imidazol-2-yl}-pyrrolidine-1-carbonyl)-2-methyl-propyl]-carbamic acid methyl ester] | – | < 0.1 nM | < 0.1 nM | < 0.1 nM | > 75000 nM | – | < 0.1 nM
COC(=O)N[C@H](C(=O)N1CCCC1c1nc(-c2cc3sc(-c4ccc(-c5cnc([C@@H]6CCCN6C(=O)[C@@H](c6ccccc6)N6CCCCC6)[nH]5)cc4)cc3o2)c[nH]1)C(C)C (stereo partly shown) [Compound A212] | – | < 0.1 nM | < 0.1 nM | < 0.1 nM | 10000 to 75000 nM | – | < 0.1 nM
COC(=O)N[C@H](C(=O)N1CCC[C@H]1c1nc2ccc(-c3cc4sc(-c5ccc(-c6c[nH]c([C@@H]7CCCN7C(=O)[C@H](NC(=O)OC)c7ccccc7)n6)cc5)cc4s3)cc2[nH]1)C(C)C [Compound A215, [(S)-1-((S)-2-{6-[5-(4-{(S)-2-[1-((R)-2-methoxycarbonylamino-2-phenyl-acetyl)-pyrrolidin-2-yl]-1H-imidazol-4-yl}-phenyl)-thieno[3,2-b]thiophen-2-yl)-1H-benzoimidazol-2-yl}-pyrrolidine-1-carbonyl)-2-methyl-propyl]-carbamic acid methyl ester] | – | < 0.1 nM | < 0.1 nM | < 0.1 nM | > 75000 nM | – | < 0.1 nM
COC(=O)N[C@H](C(=O)N1CCCC1c1ncc(-c2cc3sc(-c4ccc(-c5cnc([C@@H]6CCCN6C(=O)[C@H](NC(=O)OC)c6ccccc6)[nH]5)cc4)cc3s2)[nH]1)C(C)C (stereo partly shown) [Compound A217] | – | < 0.1 nM | < 0.1 nM | < 0.1 nM | > 75000 nM | – | < 0.1 nM
